Reference: patent US20240262804A1, “NITROGEN-CONTAINING HETEROCYCLIC KETONES, PREPARATION METHODS AND MEDICINAL USES THEREOF” (Hansoh Bio LLC, priority 2021, published 2024)

Target: bovine cardiac myosin (Bos taurus (Bovine), UniProt Q9BE39)
Experiment: Myosin inhibitory potency: PK/LDH-coupled ATPase assay on bovine skinned cardiac myofibrils
Format: biochemical
Details: pCa=6.25, 50 μM ATP, 25° C., read-out: myosin inhibition activity IC50
Method: The average rates of ATPase inhibition, and the IC50 values are determined by Victor Nivo multimode plate reader (PerkinElmer, USA).
As to the assays background, a biochemical assay couples the ATPase activity of bovine cardiac myosin to an enzymatic coupling system consisting of pyruvate kinase and lactate dehydrogenase (PK/LDH) and monitoring the absorbance decrease of NADH (at 340 nm) as a function of time to measure the inhibitory ability of small molecule agents. In the assay, PK converts ADP (Adenosine diphosphate) to ATP (adenosine triphosphate) by converting PEP (phosphoenolpyruvate) to pyruvate. Pyruvate is then converted to lactate by LDH by converting NADH (nicotinamide adenine dinucleotide) to NAD (oxidized nicotinamide adenine dinucleotide).
In our experiments, bovine skinned cardiac myofibrils were isolated from the frozen bovine left ventricle as myosin's source in the ATPase assay. The calcium concentration that achieves a 50% (pCa50 or pCa=6.25) activation of the myofibril system was chosen as the final condition for assessing the activation activity according to the literature (DOI: 10.1074/jbc.M117.776815). Myofibrils ATPase activity was measured in a buffered solution containing 12 mM PIPES (piperazine-N, N′-bis(2-ethane sulfonic acid) and 2 mM magnesium chloride at pH 6.8 (PM12 buffer). Final assay conditions were 1 mg/mL of bovine cardiac myofibrils, 1:20 of stock PK/LDH (Sigma-Aldrich, Cat No. P0294-5X5ML), 50 μM ATP, 1 mM DTT (dithiothreitol), 0.75 mM NADH, 1.5 mM PEP at pCa50 (pCa=6.25). Compounds were dissolved in DMSO (dimethyl sulfoxide). Serial dilution of compounds was created such that the final desired concentration of compound would be achieved in a volume of 150 μL with a fixed DMSO concentration of 2% (v/v). 75 μL of a solution containing bovine cardiac myofibrils, PK/LDH, and calcium were added to a 96 well plate for a 7 point dose-response. In some circumstances, 10 point-response was used to repeat the ATPase assays on compounds of interest. Compounds were added to the myofibrils solution and incubated for 5 minutes. The enzymatic reaction was started with the addition of 75 μL of a solution containing ATP, PEP, NADH, compounds, and calcium. The ATPase activity was measured by reading absorbance at 340 nm in a PerkinElmer Victor Nivo plate reader at 25° C. in kinetic mode for 15 minutes using clear bottom plates. The slopes of the absorbance changes as a function of time for the first 10 minutes were normalized to slopes on the control wells containing all reagents, including DMSO, but without compounds. This normalized rate was then plotted as a function of small molecule concentration in GraphPad prism 9. The data were fitted to a four-parameter fit, and IC50 was calculated using Graphpad Prism 9.

bovine cardiac myosin, sequence (Q9BE39 whole entry): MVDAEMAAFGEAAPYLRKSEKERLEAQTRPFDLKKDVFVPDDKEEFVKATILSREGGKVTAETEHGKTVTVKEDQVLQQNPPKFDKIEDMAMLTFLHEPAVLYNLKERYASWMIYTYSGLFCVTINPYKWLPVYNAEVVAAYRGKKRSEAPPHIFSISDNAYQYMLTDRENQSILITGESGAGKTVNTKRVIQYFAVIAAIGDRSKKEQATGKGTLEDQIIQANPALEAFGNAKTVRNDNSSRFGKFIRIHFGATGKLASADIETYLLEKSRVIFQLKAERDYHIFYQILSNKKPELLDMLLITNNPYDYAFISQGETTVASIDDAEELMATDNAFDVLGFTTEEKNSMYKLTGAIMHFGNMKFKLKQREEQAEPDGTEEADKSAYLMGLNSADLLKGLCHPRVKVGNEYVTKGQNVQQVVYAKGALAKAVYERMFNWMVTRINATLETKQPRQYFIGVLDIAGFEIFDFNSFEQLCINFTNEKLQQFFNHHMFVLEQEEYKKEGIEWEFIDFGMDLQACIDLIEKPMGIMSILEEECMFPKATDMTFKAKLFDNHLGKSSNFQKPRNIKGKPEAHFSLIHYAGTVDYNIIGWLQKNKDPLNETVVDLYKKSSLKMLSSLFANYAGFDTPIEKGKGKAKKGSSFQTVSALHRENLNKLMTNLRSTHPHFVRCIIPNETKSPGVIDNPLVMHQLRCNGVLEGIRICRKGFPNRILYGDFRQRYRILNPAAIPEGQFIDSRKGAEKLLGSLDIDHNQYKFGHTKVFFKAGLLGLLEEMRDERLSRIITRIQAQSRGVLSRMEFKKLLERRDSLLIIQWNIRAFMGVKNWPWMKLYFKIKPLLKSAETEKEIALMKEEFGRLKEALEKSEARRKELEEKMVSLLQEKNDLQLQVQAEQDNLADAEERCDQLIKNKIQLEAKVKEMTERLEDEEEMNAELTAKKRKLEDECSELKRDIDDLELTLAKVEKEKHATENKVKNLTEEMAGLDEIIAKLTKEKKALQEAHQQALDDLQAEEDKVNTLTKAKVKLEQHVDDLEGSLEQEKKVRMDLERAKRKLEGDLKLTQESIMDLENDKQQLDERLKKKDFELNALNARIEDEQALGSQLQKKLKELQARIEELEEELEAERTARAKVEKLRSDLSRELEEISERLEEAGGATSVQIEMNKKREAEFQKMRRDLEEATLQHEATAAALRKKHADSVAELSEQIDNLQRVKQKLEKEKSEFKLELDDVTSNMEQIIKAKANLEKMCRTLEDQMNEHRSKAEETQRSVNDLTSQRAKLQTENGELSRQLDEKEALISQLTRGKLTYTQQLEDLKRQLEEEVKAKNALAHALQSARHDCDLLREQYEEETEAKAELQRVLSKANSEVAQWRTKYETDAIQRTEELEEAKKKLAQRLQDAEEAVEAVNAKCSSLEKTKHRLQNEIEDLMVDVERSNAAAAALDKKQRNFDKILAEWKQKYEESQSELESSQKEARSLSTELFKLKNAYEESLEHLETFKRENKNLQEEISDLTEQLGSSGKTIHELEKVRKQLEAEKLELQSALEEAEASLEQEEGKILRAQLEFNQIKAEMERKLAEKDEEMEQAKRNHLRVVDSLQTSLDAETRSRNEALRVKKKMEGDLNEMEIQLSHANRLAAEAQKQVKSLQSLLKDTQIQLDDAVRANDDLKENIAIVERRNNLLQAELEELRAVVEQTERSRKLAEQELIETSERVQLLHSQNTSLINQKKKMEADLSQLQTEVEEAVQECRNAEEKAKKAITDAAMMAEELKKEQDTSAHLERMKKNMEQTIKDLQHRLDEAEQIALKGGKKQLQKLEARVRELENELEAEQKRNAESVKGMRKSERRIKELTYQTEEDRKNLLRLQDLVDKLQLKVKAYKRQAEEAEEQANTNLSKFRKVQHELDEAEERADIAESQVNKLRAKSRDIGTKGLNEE
bovine cardiac myosin, sequence (P85100 whole entry partner): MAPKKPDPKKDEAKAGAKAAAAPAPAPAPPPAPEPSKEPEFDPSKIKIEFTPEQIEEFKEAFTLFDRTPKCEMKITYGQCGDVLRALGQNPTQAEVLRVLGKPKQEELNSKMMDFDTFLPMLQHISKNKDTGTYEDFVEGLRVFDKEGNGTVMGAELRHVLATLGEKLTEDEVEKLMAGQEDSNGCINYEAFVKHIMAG
bovine cardiac myosin, sequence (Q3SZE5 whole entry partner): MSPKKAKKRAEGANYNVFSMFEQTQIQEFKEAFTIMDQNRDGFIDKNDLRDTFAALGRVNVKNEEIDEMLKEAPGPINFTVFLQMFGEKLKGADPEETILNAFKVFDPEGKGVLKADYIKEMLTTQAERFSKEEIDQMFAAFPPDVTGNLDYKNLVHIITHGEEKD

SMILES | IC50 [nM]
CC(Nc1nc(=O)n(C2CCOCC2)c(=O)[nH]1)c1cccc(CO)c1 (stereo not shown) [Example 139] | 6650
CC(=O)N1CCN(c2cccc([C@H](C)Nc3nc(=O)n(C4CCOCC4)c(=O)[nH]3)c2)CC1 [Example 213] | 7790
Cc1cccc([C@H](C)Nc2nc(=O)n(C3CCCOC3)c(=O)[nH]2)c1 (stereo partly shown) [Example 35] | 2590
Cc1ccccc1C(C)Nc1nc(=O)n(C2CCNCC2)c(=O)[nH]1 (stereo not shown) [Example 189] | 6720
CC(Nc1nc(=O)n(C2CCOCC2)c(=O)[nH]1)C1CCC(F)(F)CC1 (stereo not shown) [Example 118] | 13000
C[C@H](Nc1nc(=O)n(C2CCOCC2)c(=O)[nH]1)c1cccc([C@@H](O)C(F)(F)F)c1 [Example 346] | 2580
C[C@H](Nc1nc(=O)n(C2CCOCC2)c(=O)[nH]1)c1cccc(C(O)C(F)(F)F)c1 (stereo partly shown) [Example 348] | 2450
Cc1n[nH]cc1-c1cccc([C@H](C)Nc2nc(=O)n(C3CCOCC3)c(=O)[nH]2)c1 [Example 230] | 5710
Cc1ccc(C(C)Nc2nc(=O)n(C3CCOCC3)c(=O)[nH]2)cc1 (stereo not shown) [Example 134] | 3640
Cc1cccc([C@H](C)Nc2nc(=O)n(CC(F)(F)F)c(=O)[nH]2)c1 [Example 42] | 9100
CC(C)n1c(=O)nc(N[C@@H](C)c2cccc(C(C)(C)O)c2)[nH]c1=O [Example 307] | 1870
Cc1ccc(F)c([C@H](C)Nc2nc(=O)n([C@@H](C)C(F)(F)F)c(=O)[nH]2)c1 [Example 311] | 2360
CC(Nc1nc(=O)n(C(C)C)c(=O)[nH]1)c1ccccc1O (stereo not shown) [Example 51] | 11100
Cc1cccc([C@H](Nc2nc(=O)n(C3CCOCC3)c(=O)[nH]2)C(F)(F)F)c1 [Example 280] | 2430
O=c1nc(NC(CF)c2ccccc2)[nH]c(=O)n1C1CCCCC1 (stereo not shown) [Example 142] | 4830
CC(C)n1c(=O)nc(NC(C2CCCCC2)C2CC2)[nH]c1=O (stereo not shown) [Example 69] | 8430
Cc1cccc([C@H](C)Nc2nc(=O)n(C3CCCC3)c(=O)[nH]2)c1 [Example 94] | 1750
CC[C@H](Nc1nc(=O)n(C2CCOCC2)c(=O)[nH]1)C1CCCCC1 [Example 116] | 3950
COCC(Nc1nc(=O)n(C(C)C)c(=O)[nH]1)c1cc(C)ccc1F (stereo not shown) [Example 275] | 1810
CC(C)n1c(=O)nc(N[C@@H](C)c2cccc(C3CCOCC3)c2)[nH]c1=O [Example 295] | 1360
O=c1nc(NCCC2CCCCC2)[nH]c(=O)n1C1CCOCC1 [Example 114] | 14200
C[C@H](Nc1nc(=O)n([C@H]2CCOC[C@H]2F)c(=O)[nH]1)c1cccc(C(F)(F)F)c1 [Example 310] | 1490

SMILES | IC50 [nM]
Cc1cccc([C@H](C)Nc2nc(=O)n(C3CCOC(C)C3)c(=O)[nH]2)c1 (stereo partly shown) [Example 100] | 5410
C[C@H](Nc1nc(=O)n(C2CCOCC2)c(=O)[nH]1)c1cccc(C2=CCOCC2)c1 [Example 208] | 1600
C[C@H](Nc1nc(=O)n(C2CCN(C3CC3)CC2)c(=O)[nH]1)C1CCCCC1 [Example 32] | 3040
CC(Nc1nc(=O)n(C2CCOCC2)c(=O)[nH]1)c1ccccc1F (stereo not shown) [Example 121] | 2620
COCCN1CCC(n2c(=O)nc(N[C@@H](C)c3cccc(C)c3)[nH]c2=O)CC1 [Example 38] | 1450
COc1cccc([C@H](C)Nc2nc(=O)n(C3CCOCC3)c(=O)[nH]2)c1 [Example 326] | 1350
C[C@H](Nc1nc(=O)n(C2CCNC(=O)C2)c(=O)[nH]1)C1CCCCC1 (stereo partly shown) [Example 22] | 13200
C[C@H](Nc1nc(=O)n(C2CCOCC2)c(=O)[nH]1)C1CCCCC1 [Example 2] | 2450
Cc1cccc([C@H](C)Nc2nc(=O)n(C3CCOCC3(C)C)c(=O)[nH]2)c1 (stereo partly shown) [Example 99] | 9350
C[C@H](Nc1nc(=O)n(C2CCOCC2)c(=O)[nH]1)c1cccc(-c2cc[nH]n2)c1 [Example 227] | 1670
CC(Nc1nc(=O)n(C2CCNCC2)c(=O)[nH]1)c1cccc(F)c1 (stereo not shown) [Example 191] | 7630
CC(Nc1nc(=O)n(C2CCOCC2)c(=O)[nH]1)c1ccccc1Br (stereo not shown) [Example 119] | 3400
C[C@H](Nc1nc(=O)n(C2CCOCC2)c(=O)[nH]1)c1ccc(F)c(F)c1 [Example 164] | 1360
C[C@H](Nc1nc(=O)n(C2(C)CCCC2)c(=O)[nH]1)C1CCCCC1 [Example 90] | 8720
CC(Nc1nc(=O)n(C2CCOCC2)c(=O)[nH]1)c1ccccc1O (stereo not shown) [Example 101] | 10600
CC(Nc1nc(=O)n(C2CCOCC2)c(=O)[nH]1)c1ccc(C(F)(F)F)cc1 (stereo not shown) [Example 131] | 2490
C[C@H](Nc1nc(=O)n(C2CCOCC2)c(=O)[nH]1)c1cccc(C2=CCN(C(=O)OC(C)(C)C)CC2)c1 [Example 210] | 3300
C[C@H](Nc1nc(=O)n([C@H]2CC[C@@H](F)CC2)c(=O)[nH]1)C1CCCCC1 [Example 86] | 1830
CC(C)n1c(=O)nc(NCCC2CCCCC2)[nH]c1=O [Example 65] | 4230
C[C@H](Nc1nc(=O)n(C2CCOCC2)c(=O)[nH]1)c1cccc(-n2cccn2)c1 [Example 199] | 2100
CC(C)[C@H](O)c1cccc([C@H](C)Nc2nc(=O)n(C3CCOCC3)c(=O)[nH]2)c1 [Example 345] | 790

More lines, now with the values ahead:

IC50 [nM] | SMILES
390 | C[C@H](Nc1nc(=O)n(C2CCOCC2)c(=O)[nH]1)c1cccc(CC(F)(F)F)c1 [Example 274]
1050 | Cc1ccc([C@H](C)Nc2nc(=O)n(C3CCOCC3)c(=O)[nH]2)cc1F [Example 161]
1170 | CC(C)n1c(=O)nc(N[C@@H](C)c2ccc(Cl)c(Cl)c2)[nH]c1=O [Example 325]
240 | CC(C#N)c1cccc([C@H](C)Nc2nc(=O)n(C3CCOCC3)c(=O)[nH]2)c1 (stereo partly shown) [Example 277]
700 | C[C@H](Nc1nc(=O)n(C2CCOCC2)c(=O)[nH]1)c1cccc(-c2ccccc2F)c1 [Example 224]
450 | C[C@H](Nc1nc(=O)n([C@H]2CC[C@H](F)CC2)c(=O)[nH]1)C1CCCCC1 [Example 87]
880 | Cc1ccc(F)c([C@H](C)Nc2nc(=O)n([C@H](C)C(F)(F)F)c(=O)[nH]2)c1 [Example 302]
780 | C[C@H](Nc1nc(=O)n(C2CCOCC2)c(=O)[nH]1)c1ccc(S(C)(=O)=O)cc1 [Example 249]
370 | C[C@H](Nc1nc(=O)n(C2CCOCC2)c(=O)[nH]1)c1cccc(Cl)c1 [Example 154]
520 | C[C@H](Nc1nc(=O)n(C2CCOCC2)c(=O)[nH]1)c1ccc(F)c(Br)c1 [Example 158]
480 | C[C@H](Nc1nc(=O)n(C(C2CC2)C(F)(F)F)c(=O)[nH]1)C1CCCCC1 (stereo partly shown) [Example 18]
1060 | C[C@H](Nc1nc(=O)n([C@@H](C)C(F)(F)F)c(=O)[nH]1)c1ccc(Cl)c(Cl)c1 [Example 324]
1270 | C[C@H](Nc1nc(=O)n(C2CCOCC2)c(=O)[nH]1)c1cccc(C#N)c1 [Example 327]
630 | COC[C@@H](Nc1nc(=O)n(C2CCOCC2)c(=O)[nH]1)c1cc(C)ccc1F [Example 278]
620 | Cc1cccc([C@@H](Nc2nc(=O)n(C3CCOCC3)c(=O)[nH]2)C2CC2)c1 [Example 335]
1000 | C[C@H](Nc1nc(=O)n(C2CCOCC2)c(=O)[nH]1)c1ccc(C(F)F)cc1 [Example 157]
580 | CC(=O)N1CC(c2cccc([C@H](C)Nc3nc(=O)n(C4CCOCC4)c(=O)[nH]3)c2)C1 [Example 273]
1230 | Cc1ccc([C@H](C)Nc2nc(=O)n(C3CCOCC3)c(=O)[nH]2)cc1C [Example 153]
1230 | Cc1cccc([C@H](C)Nc2nc(=O)n(C3CCN(S(C)(=O)=O)CC3)c(=O)[nH]2)c1 [Example 244]
360 | C[C@H](Nc1nc(=O)n(C2CCOCC2)c(=O)[nH]1)c1cccc(C2CN(CC(F)(F)F)C2)c1 [Example 288]
1220 | C[C@@H](Nc1nc(=O)n(C2CCOCC2)c(=O)[nH]1)c1cccc(C2CC2)c1 [Example 306]
1080 | Cc1cc([C@H](C)Nc2nc(=O)n(C3CCOCC3)c(=O)[nH]2)ccc1Cl [Example 330]
1180 | CO[C@@H]1COCC[C@H]1n1c(=O)nc(N[C@@H](C)c2cccc(C)c2)[nH]c1=O [Example 299]
910 | COc1cc([C@H](C)Nc2nc(=O)n(C3CCOCC3)c(=O)[nH]2)ccc1F [Example 171]
